# Source: patent US20080113944A1, “Novel Indole Derivatives” (Novo Nordisk A/S, priority 2004, published 2008)
row,SMILES,melting point [°C]
1,"CS(=O)(=O)C(C#N)=Cc1ccc2[nH]ccc2c1 [Example 3, 3-(1 H-indol-5-yl)-2-methanesulfonylacrylonitrile]",184 to 185
2,"N#CC(=Cc1ccc2[nH]ccc2c1)S(=O)(=O)c1ccc([N+](=O)[O-])cc1 [Example 2, 3-(1H-indol-5-yl)-2-(4-nitrobenzenesulfonyl)acrylonitrile]",219 to 221
